What was measured:
p53 [1] = test: Western blot, p53 protein level in MCF-7 cells; assay type: cell-based, human; conditions: MCF-7, 10, 20 and 30 μM, 24 h, β-actin internal control
Procedure: (§1) MCF-7 cells were treated with compounds 6 and 10 for 24 h. The cells were then harvested and washed twice with 1x PBS, by adding lysis buffer containing 20 mM Tris (pH 7.5), 150 mM NaCl, 1 mM sodium ethylenediaminetetraacetic acid, 1 mM ethylene glycol-bis (β-aminoethyl ether)-N,N,N′,N′-tetraacetic acid, 1% Triton X100, 1 µg/mL leupeptin, and 100 µM phenylmethylsulphonyl fluoride, to prepare the total cell extract. The lysate was cooled on ice for 1 h and clarified by centrifugation at 13000 rpm at 4 °C for 15 min. The supernatants were collected. The protein concentrations of all the samples were determined using Bradford reagent (BioRad, Hercules, CA, USA). For western blot analysis, 30 − 35 µg of the total protein was loaded onto 10% sodium dodecyl sulphate-polyacrylamide gel and then transferred to a polyvinylidene fluoride membrane. The membrane was blocked with 5% bovine serum albumin in 0.1% Tween-tris-buffered saline (TBST) buffer for 2 h at room temperature, and then washed thrice with TBST. The membrane was incubated with primary antibodies for Bcl-2, p53, caspase7, Bax, and β-actin (1:200, Santa Cruz Biotechnology). […] It was then ready for immunodetection; the membrane was incubated with enhanced chemiluminescence western blotting detection reagents (Amersham, Pharmacia Biotech Inc., Piscataway, NJ, USA) and bands were obtained on exposing to X-ray films (Amersham).

MCF-7 cells [2] = test: Cell cycle analysis by flow cytometry (propidium iodide); assay type: cell-based, human; conditions: 24 h, average ± SD, control 0.75 ± 0.07%
Procedure: Cell cycle analysis was conducted as previously described by Alqahtani and co-workers[35]. Briefly, MCF-7 cells were seeded in 6-well plates and incubated for 24 h before the addition of various concentrations (10, 20 and 30 µM) of compounds 6 and 10. After incubating for 24 h, the cells were harvested, washed, and resuspended in PBS. The cells were fixed with 70% ethanol at 4 °C for 4 h. The cells were then incubated with RNase (100 µg/mL) and PI (50 µg/mL) for 30 min in the dark. Flow cytometry analysis was performed using Cytomics FC 500 (Beckman Coulter, Brea, CA, USA).

MCF-7 cells [3] = test: Annexin V-FITC/PI apoptosis assay by flow cytometry; assay type: cell-based, human; conditions: 24 h, average ± SD, control 2.9 ± 0.84% (6) / 3.3 ± 0.28% (10)
Procedure: Apoptosis was measured using the Annexin V/PI detection kit (BioLegend, CA, USA), as per the manufacturer’s instructions. Briefly, MCF-7 cells were treated with different concentrations (10, 20 and 30 µM) of compounds 6 and 10 for 24 h. After treatment, the detached and adherent cells were collected, washed, and resuspended in 100 µL of 1X binding buffer. Then, 5 µL of Annexin V and 5 µL of PI were added to the resuspended cells. After incubating for 15 min in the dark, 400 µL of binding buffer was added to each tube and cell samples were analysed using Cytomics FC 500 (Beckman Coulter, Brea, CA, USA). Data collection and analysis were conducted using the CXP software V. 3.0 (Aspect, Phoenix, AZ, USA).

[4] = tested on: HepG2 cells (liver cancer); test: MTT cytotoxicity assay, HepG2; assay type: cell-based; conditions: Homo sapiens, HepG2, 48 h treatment, mean ± SD (n = 3), NA = no activity
Procedure: (§2) The MTT assay was performed to test the antiproliferative activity of the synthesised compounds, as per the methodology described by Alqahtani and co-workers[35]. Briefly, A549, HepG2, LoVo, MCF-7 and HUVEC cell lines were seeded in 96-cell culture plates (5 × 10^4 per well) and allowed 24 h for adherence. The cells were then treated with different concentrations of each compound, and 5-fluorouracil was used as a positive control. Following the treatment period (48 h), 10 µL of MTT solution (5 mg/mL) was added to each well and the plates were incubated at 37 °C for 2–4 h. Isopropanol (100 µL) acidified with 0.1 N HCl was added to solubilise the formazan products and the plate was kept on a shaker for 10 min. The optical density of each mixture was measured at 570 nm using an enzyme-linked immunosorbent assay plate reader (ELISA plate reader, Bio-Tek, USA). The concentrations of tested compounds required to inhibit cell growth by 50% (IC50) were calculated using a dose-response curve. Cell survival was calculated using the following equation: Cell survival (%)=(OD of treated sample)/(OD of untreated sample)×100

[5] = tested on: HUVEC (normal human umbilical vein endothelial cells); test: MTT cytotoxicity assay, HUVEC; assay type: cell-based; conditions: Homo sapiens, HUVEC, 48 h treatment, mean ± SD (n = 3), NA = no activity
Procedure: as §2

p53 [6] = test: RT-PCR, p53 mRNA expression in MCF-7 cells; assay type: cell-based, human; conditions: MCF-7, 10, 20 and 30 µM, 24 h, compared to control, β-actin internal control
Procedure: (§3) MCF-7 cells were cultured with different concentrations (10, 20 and 30 µM) of compounds 6 and 10 for 24 h, and the untreated cells were used as a control. The cells were lysed using Trizol reagent (Invitrogen, USA). Total RNA was extracted as per the manufacturer’s instructions. Total RNA was quantitated by taking 2 µL of resuspended RNA on a Nano drop spectrophotometer (Thermo Scientific, USA) and reverse transcribing an equal amount (1 µg) of RNA to make complementary deoxyribonucleic acid (cDNA) using a Super Script VILO cDNA synthesis Kit (Invitrogen), as per the manufacturer’s protocol, in a final volume of 20 µL. The mixture was incubated at 42 °C for 1 h. The generated cDNA (2 µL) was used to assess the mRNA expression of apoptotic genes, including caspase-7, Bax, Bcl-2, and p53. The actin gene was used as an internal control. RT-PCR was performed using 5x Firepol Master Mix ready to load (Solis BioDyne, Tartu, Estonia), as per the manufacturer’s instructions. The program was run as follows: initial denaturation at 95 °C for 5 min, denaturation at 95 °C for 30 s, annealing at 55 °C for 45 s, elongation at 72 °C for 45 s (30 cycles), and final extension at 72 °C for 10 min. The RT-PCR products were electrophoresed on a 1.2% agarose gel containing ethidium bromide, and the gel was imaged on a Licor machine.

[7] = tested on: LoVo cells (colon cancer); test: MTT cytotoxicity assay, LoVo; assay type: cell-based; conditions: Homo sapiens, LoVo, 48 h treatment, mean ± SD (n = 3), NA = no activity
Procedure: as §2

Bax [8] = test: RT-PCR, Bax mRNA expression in MCF-7 cells; assay type: cell-based, human; conditions: MCF-7, 10, 20 and 30 µM, 24 h, compared to control, β-actin internal control
Procedure: as §3

[9] = tested on: A549 cells (non-small cell lung carcinoma); test: MTT cytotoxicity assay, A549; assay type: cell-based; conditions: Homo sapiens, A549, 48 h treatment, mean ± SD (n = 3), NA = no activity
Procedure: as §2

Bax [10] = test: Western blot, Bax protein level in MCF-7 cells; assay type: cell-based, human; conditions: MCF-7, 10, 20 and 30 μM, 24 h, β-actin internal control
Procedure: as §1

Bcl-2 [11] = test: RT-PCR, Bcl-2 mRNA expression in MCF-7 cells; assay type: cell-based, human; conditions: MCF-7, 10, 20 and 30 µM, 24 h, compared to control, β-actin internal control
Procedure: as §3

[12] = tested on: MCF-7 cells (human breast cancer cell line); test: MTT cytotoxicity assay, MCF-7; assay type: cell-based; conditions: Homo sapiens, MCF7, 48 h treatment, mean ± SD (n = 3), NA = no activity
Procedure: as §2

Bcl-2 [13] = test: Western blot, Bcl-2 protein level in MCF-7 cells; assay type: cell-based, human; conditions: MCF-7, 10, 20 and 30 μM, 24 h, β-actin internal control
Procedure: as §1

caspase-7 [14] = test: RT-PCR, caspase-7 mRNA expression in MCF-7 cells; assay type: cell-based, human; conditions: MCF-7, 10, 20 and 30 µM, 24 h, compared to control, β-actin internal control
Procedure: as §3

caspase-7 [15] = test: Western blot, caspase-7 protein level in MCF-7 cells; assay type: cell-based, human; conditions: MCF-7, 10, 20 and 30 μM, 24 h, β-actin internal control
Procedure: as §1

Row | melting point | SMILES | p53 protein level (p53 [1]) | proportion of sub-G1 phase cells (MCF-7 cells [2]; MCF-7, 10 µM) | proportion of sub-G1 phase cells (MCF-7 cells [2]; MCF-7, 20 µM) | proportion of sub-G1 phase cells (MCF-7 cells [2]; MCF-7, 30 µM) | proportion of cells in early apoptosis (MCF-7 cells [3]; MCF-7, 10 µM) | proportion of cells in early apoptosis (MCF-7 cells [3]; MCF-7, 20 µM) | proportion of cells in early apoptosis (MCF-7 cells [3]; MCF-7, 30 µM) | IC50 [4] | IC50 [5] | expression of p53 mRNA (p53 [6]) | IC50 [7] | expression of Bax mRNA (Bax [8]) | IC50 [9] | Bax protein level (Bax [10]) | expression of Bcl-2 mRNA (Bcl-2 [11]) | IC50 [12] | Bcl-2 protein expression (Bcl-2 [13]) | expression of caspase-7 mRNA (caspase-7 [14]) | caspase-7 protein level (caspase-7 [15])
1 | > 350 °C | COc1cccc2c(=O)n(-c3ccc(S(N)(=O)=O)cc3)c(SCC(=O)Nc3ccccc3C)nc12 [Compound 6, 2-((8-Methoxy-4-oxo-3-(4-sulphamoylphenyl)-3,4-dihydroquinazolin-2-yl)thio)-N-(o-tolyl) acetamide] | markedly increased | 3.35 ± 0.07% | 7.8 ± 0.14% | 22.85 ± 1.2% | 7.6 ± 1.4% | 11.4 ± 1.97% | 18.35 ± 2.4% | 45.6 ± 0.71 µM | 88.27 ± 0.32 µM | increased | 22.6 ± 0.86 µM | increased | 51.5 ± 1.36 µM | markedly increased | downregulated | 20.2 ± 0.6 µM | down-regulated | increased | markedly increased
2 | 292 to 294 °C | CCc1cccc(NC(=O)CSc2nc3c(OC)cccc3c(=O)n2-c2ccc(S(N)(=O)=O)cc2)c1 [Compound 10, N-(3-Ethylphenyl)-2-((8-methoxy-4-oxo-3-(4-sulphamoylphenyl)-3,4-dihydroquinazolin-2-yl)thio) acetamide] | markedly increased | 4.3 ± 0.28% |  | 30.6 ± 0.07% | 9.55 ± 0.2% |  | 16 ± 0.84% | 42.3 ± 1.59 µM | 32 ± 1.47 µM | increased | 22.3 ± 2.26 µM | increased | 48 ± 2.78 µM | markedly increased | downregulated | 20.9 ± 0.4 µM | down-regulated | increased | markedly increased
